Tests used:
[1] = Solubility in 1-propanol relative to other alcohols; format: physicochemical
Description: Using 1-propanol as an extracting solvent allows fast and simple sample processing. The procedure has been simplified to a single extraction and no evaporation process is needed. This allows for efficient sample handling. Extraction of CoQ10H2 and CoQ10 from a variety of biological matrices is made facile with 1-propanol, because it can be mixed with water in any proportion. […] Thus, 1-propanol is an effective extraction solvent (Table 2). The 1-propanol extract can be directly analyzed by the described HPLC-EC method. Furthermore, this procedure takes advantage of the use of CoQ9 as an internal standard. Because the levels of CoQ9 in human blood are negligible, it is desirable to spike control samples with this CoQ9 to validate the extraction process.

[2] = CoQ10H2 and TQ10 in paired heparin versus EDTA plasma samples by HPLC-EC; format: physicochemical, human
Experimental: (§1) According to the present invention, venous blood is collected into a VACUTAINER containing heparin as anticoagulant and mixed gently by inversion 5-6 times. At this point the blood-heparin tube is securely capped, and is then placed in ice and/or kept in refrigeration prior to processing. The blood-heparin tube should be processed within 4 hours. Blood samples should not be collected in tubes containing metal chelators, such as ethylenediaminetetraacetic acid (EDTA). The blood-heparin tube is subject to centrifugation at an appropriate speed such as 3000 rpm for 10 minutes at 4° C. Heparinized plasma is separated from red blood cells and placed in a capped polypropylene tube and immediately stored at −75° C. or below until analysis.
Each frozen sample is thawed at room temperature, and 100 μl of this sample is placed in a 1.5-ml capped polypropylene tube containing 50 μl of internal standard solution (CoQ9, 2 μg/mL in 1-propanol). All the tubes are kept in an ice-bath. This is mixed with 850 μl of cold 1-propanol. The tubes are vortexed for 2 minutes on a mechanical vortexer and centrifuged for 10 min at 0-4° C. The resulting supernatant is separated from the precipitate and transferred to an autosampler glass vial. The sample vial is immediately placed in the autosampler tray at 0-4° C. […] Twenty samples can be analyzed sequentially, within 4 hours. […]

[3] = Stability of CoQ10H2 in refrigerated blood samples in vacutainers; format: physicochemical, human
Experimental: When blood samples in vacutainers are opened and kept refrigerated, the CoQ10H2:TQ10 ratios (n=30) in EDTA samples decreased by ˜30% over 7 h, whereas the CoQ10H2:TQ10 ratios in heparinized samples were stable over the same period with variation of less than 3% (median 0.949; range 0.927-0.970; n=30). There was as significant difference of CoQ10H2:TQ10 ratios in heparin in EDTA (P=0.028). The observed findings therefore reflect the effect of air-exposure on EDTA samples during the blood sampling procedure. The results also indicate that delays, in processing and analyzing EDTA samples would result in lowered and variable CoQ10H2:TQ10 ratios.
CoQ10H2 is not stable and is oxidized in air at room temperature. CoQ10H2 is unstable in whole blood, plasma and n-propanol extract when EDTA is used as anticoagulant. EDTA-anticoagulated blood loses approximately 15% of CoQ10H2 within 4 hours when stored in refrigeration (4° C.), whereas only <1% loss of CoQ10H2 occurs in heparin-anticoagulated blood under the same conditions (FIG. 6). When fresh blood samples in closed heparin vacutainers are kept refrigerated, no significant difference in CoQ10H2:TQ10 ratios was observed between samples stored for 0 h and 24 h (P=0.052). The median CoQ10H2:TQ10 ratio stored for 24 h was 0.955 (range 0.923-0.972; n=8) in comparison to the initial value of 0.964 (range 0.935-0.978; n=8). The CoQ10H2:TQ10 ratios decreased by ˜6% after 48 h and by ˜28% after 72 h. Storage of blood specimens in VACUTAINERS at +4° C. […] Okamoto et al reported the percentage of CoQ10H2 with respect to the TQ10 was constant in plasma for one day when kept at 2° C. and −10° C.

[4] = Stability of CoQ10H2 in frozen plasma; format: physicochemical, human; conditions: plasma kept frozen at −75° C. or below
Experimental: as §1
CoQ10H2 is not stable and is oxidized in air at room temperature. CoQ10H2 is unstable in whole blood, plasma and n-propanol extract when EDTA is used as anticoagulant. EDTA-anticoagulated blood loses approximately 15% of CoQ10H2 within 4 hours when stored in refrigeration (4° C.), whereas only <1% loss of CoQ10H2 occurs in heparin-anticoagulated blood under the same conditions (FIG. 6). When fresh blood samples in closed heparin vacutainers are kept refrigerated, no significant difference in CoQ10H2:TQ10 ratios was observed between samples stored for 0 h and 24 h (P=0.052). […]

[5] = Stability of CoQ10H2 in 1-propanol extract; format: physicochemical, human
Experimental: Each frozen sample is thawed at room temperature, and 100 μl of this sample is placed in a 1.5-ml capped polypropylene tube containing 50 μl of internal standard solution (CoQ9, 2 μg/mL in 1-propanol). All the tubes are kept in an ice-bath. This is mixed with 850 μl of cold 1-propanol. The tubes are vortexed for 2 minutes on a mechanical vortexer and centrifuged for 10 min at 0-4° C. The resulting supernatant is separated from the precipitate and transferred to an autosampler glass vial. The sample vial is immediately placed in the autosampler tray at 0-4° C. A batch of up to 20 samples can be extracted and processed at the same time. An aliquot of 20 μl of 1-propanol extract from a vial is injected immediately onto an automated HPLC. Twenty samples can be analyzed sequentially, within 4 hours.

[6] = cited from earlier work

COC1=C(OC)C(=O)C(C/C=C(\C)CC/C=C(\C)CC/C=C(\C)CC/C=C(\C)CC/C=C(\C)CC/C=C(\C)CC/C=C(\C)CC/C=C(\C)CC/C=C(\C)CCC=C(C)C)=C(C)C1=O [CoQ10, ubiquinone-10, reference compound]
solubility in alcohols [1]: highest solubility in 1-propanol

COc1c(O)c(C)c(C/C=C(\C)CC/C=C(\C)CC/C=C(\C)CC/C=C(\C)CC/C=C(\C)CC/C=C(\C)CC/C=C(\C)CC/C=C(\C)CC/C=C(\C)CCC=C(C)C)c(O)c1OC [CoQ10H2]
mean ratio of CoQ10H2:TQ10 ([2]; EDTA-plasma): 91.5(±4.4) % | mean ratio of CoQ10H2:TQ10 ([2]; heparinized plasma): 97.0(±1.4) % | decrease of CoQ10H2:TQ10 ratio ([3]; EDTA blood, vacutainers opened, refrigerated, over 7 h, n=30): ~30% | loss of CoQ10H2 ([3]; EDTA-anticoagulated blood, within 4 hours, 4° C.): approximately 15% | loss of CoQ10H2 ([3]; blood in VACUTAINERS at +4° C., 24 hours): < 3% | time CoQ10H2 is stable ([3]; blood in closed heparin VACUTAINERS kept refrigerated): at least 24 hours | median CoQ10H2:TQ10 ratio ([3]; closed heparin vacutainers, initial value (0 h), n=8): 0.964 | decrease of CoQ10H2:TQ10 ratio ([3]; closed heparin vacutainers, refrigerated, after 48 h): ~6% | decrease of CoQ10H2:TQ10 ratio ([3]; closed heparin vacutainers, refrigerated, after 72 h): ~28% | median CoQ10H2:TQ10 ratio ([3]; closed heparin vacutainers, refrigerated, stored for 24 h, n=8): 0.955 | loss of CoQ10H2 ([3]; heparin-anticoagulated blood, within 4 hours, 4° C.): < 1% | variation of CoQ10H2:TQ10 ratio ([3]; heparinized blood, vacutainers opened, refrigerated, over 7 h): less than 3% | median CoQ10H2:TQ10 ratio ([3]; heparinized blood, vacutainers opened, refrigerated, over 7 h, n=30): 0.949 | time CoQ10H2 is stable [4]: at least 6 months | loss of CoQ10H2 ([5]; in 5 hours, 0-4° C.): 1% | CoQ10H2 oxidized ([5]; in an hour, room temperature): 3.75% | rate of CoQ10H2 oxidation ([5]; room temperature): ~2 nM/min | solubility in alcohols [1]: highest solubility in 1-propanol | stability in ethanol solution ([6]; extracted from plasma, prepared in ethanol solution (Okamoto et al)): rapidly oxidized | percentage of CoQ10H2 with respect to the TQ10 ([6]; plasma, one day, 2° C. and −10° C. (Okamoto et al)): constant | rate of spontaneous oxidation to CoQ10 ([6]; room temperature): ~2 nM per min

— patent US20020125193A1, “Electrochemical analysis of coenzyme Q10 and reduced coenzyme Q10” (priority 2001, published 2002)
